Legend:
human DOP receptor = molecular target: T1, human DOP receptor (Homo sapiens, UniProt P41143); settings: CHO-hDOP membranes; ref 9a; read-out: receptor binding affinity Ki DOP; cited from earlier work
T1 construct: expressed in transfected cells; host or cells: CHO-hDOP cells (gift of Dr. Lawrence Toll, SRI International)

[1] = test system: acetic acid-induced writhing in CD1 mice; settings: mouse, in vivo, sc; cited from earlier work
CD1 mice = settings: mouse, in vivo, sc
mice = settings: icv, ref 9d; cited from earlier work

T1 sequence (P41143 whole entry): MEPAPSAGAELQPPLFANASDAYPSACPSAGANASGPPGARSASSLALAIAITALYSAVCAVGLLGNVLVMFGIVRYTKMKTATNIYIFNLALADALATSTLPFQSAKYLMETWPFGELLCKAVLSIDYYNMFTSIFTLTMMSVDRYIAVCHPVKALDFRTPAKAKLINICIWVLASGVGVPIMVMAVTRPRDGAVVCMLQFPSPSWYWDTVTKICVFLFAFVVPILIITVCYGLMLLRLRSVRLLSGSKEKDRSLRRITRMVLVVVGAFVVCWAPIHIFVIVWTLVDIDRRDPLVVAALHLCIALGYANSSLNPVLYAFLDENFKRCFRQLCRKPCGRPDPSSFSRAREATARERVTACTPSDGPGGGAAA

Oc1cccc(CCN(CCc2ccccc2)CC2CCC2)c1 [Compound 1]
Ki (human DOP receptor): > 10 µM
antinociceptive ED50 (95% CI) [1]: 1.91 (1.02–3.58) mg/kg
effect on rotarod performance (evoked locomotor activity) (CD1 mice): did not affect the evoked locomotor activity
antinociceptive potency compared to U50,488 (mice): 2 fold
